# Laboratory results published in ChEMBL document CHEMBL1201862, “PubChem BioAssay data set” (2004).
# Active and inactive are the calls of the source.
# Experiments:
# [1] = molecular target: Aryl hydrocarbon receptor (Homo sapiens, UniProt P35869); assay: Luminescence-based cell-based high throughput dose response assay for activators of the Aryl Hydrocarbon Receptor (AHR). [Related pubchem assays: 2796 (Primary screen (AHR activators in singlicate)), 2845 (Confirmation screen (AHR activators in triplicate)), 434939 (Counterscreen (PXR activators in triplicate)), 2804 (Summary (AHR activators))]; type: ADME
# Aryl hydrocarbon receptor, sequence (P35869 whole entry): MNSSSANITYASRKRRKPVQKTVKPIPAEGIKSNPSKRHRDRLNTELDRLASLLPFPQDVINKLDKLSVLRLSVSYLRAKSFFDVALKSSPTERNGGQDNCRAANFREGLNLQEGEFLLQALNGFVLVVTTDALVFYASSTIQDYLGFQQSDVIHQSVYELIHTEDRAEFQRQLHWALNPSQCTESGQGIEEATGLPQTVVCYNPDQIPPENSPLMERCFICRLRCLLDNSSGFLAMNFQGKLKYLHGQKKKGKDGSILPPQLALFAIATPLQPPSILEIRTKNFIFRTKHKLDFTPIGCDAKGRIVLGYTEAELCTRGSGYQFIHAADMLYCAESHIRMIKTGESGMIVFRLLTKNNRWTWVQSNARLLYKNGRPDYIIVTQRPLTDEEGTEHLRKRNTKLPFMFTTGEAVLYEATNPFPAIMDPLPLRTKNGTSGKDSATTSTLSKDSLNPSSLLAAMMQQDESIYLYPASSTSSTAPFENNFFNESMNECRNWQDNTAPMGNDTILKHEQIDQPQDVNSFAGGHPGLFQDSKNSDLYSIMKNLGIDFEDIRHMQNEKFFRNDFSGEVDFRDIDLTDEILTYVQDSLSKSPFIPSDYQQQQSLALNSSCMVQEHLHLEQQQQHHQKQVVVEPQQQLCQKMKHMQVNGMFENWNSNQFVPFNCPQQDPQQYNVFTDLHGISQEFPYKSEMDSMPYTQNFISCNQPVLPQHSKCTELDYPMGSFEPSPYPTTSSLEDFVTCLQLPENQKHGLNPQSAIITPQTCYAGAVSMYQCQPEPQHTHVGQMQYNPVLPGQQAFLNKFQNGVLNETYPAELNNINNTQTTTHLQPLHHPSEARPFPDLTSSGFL
# [2] = molecular target: T1, Luciferin 4-monooxygenase (Photuris pensylvanica, UniProt Q27757); assay: firefly luciferase enzyme inhibitors, dose response, counter-screen for HSF-1 reporter inhibitor project, biochemical, Cell Titer Glo, luminescence, cherry-picks (AID 588847)
# T1 sequence (Q27757 whole entry): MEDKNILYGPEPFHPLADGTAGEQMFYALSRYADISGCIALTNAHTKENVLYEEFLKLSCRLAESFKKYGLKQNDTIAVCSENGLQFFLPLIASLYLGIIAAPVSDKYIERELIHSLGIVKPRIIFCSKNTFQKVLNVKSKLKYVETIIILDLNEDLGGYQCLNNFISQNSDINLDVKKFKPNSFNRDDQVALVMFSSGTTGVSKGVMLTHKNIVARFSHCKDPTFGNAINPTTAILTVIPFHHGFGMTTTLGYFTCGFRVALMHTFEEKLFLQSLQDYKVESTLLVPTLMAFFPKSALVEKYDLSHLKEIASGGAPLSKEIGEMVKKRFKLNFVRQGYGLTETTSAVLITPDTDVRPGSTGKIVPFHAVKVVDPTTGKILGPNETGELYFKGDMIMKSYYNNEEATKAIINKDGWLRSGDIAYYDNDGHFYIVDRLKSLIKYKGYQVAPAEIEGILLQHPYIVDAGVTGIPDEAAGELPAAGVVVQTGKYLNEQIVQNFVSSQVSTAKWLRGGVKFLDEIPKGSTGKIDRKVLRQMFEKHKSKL
# [3] = molecular target: Heat shock protein HSP 90-alpha (Homo sapiens, UniProt P07900); assay: Luminescence-based dose response biochemical high throughput screening assay for inhibitors of the Heat Shock Protein 90 (HSP90). [Related pubchem assays: 1831 (Summary AID.), 1846 (Confirmation screen.), 1789 (Primary screen.)]
# [4] = Plasmodium falciparum Dd2 Sybr green parasite growth Measured in Cell-Based and Microorganism Combination System Using Plate Reader - 2153-01_Inhibitor_Dose_DryPowder_Activity_Set3.; type: functional
# [5] = HepG2 cell cytotoxicity, dose response, cytotoxicity control, plate reader, dry powder samples (AID 1159569); type: functional, cell-based;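 note: inhibitor potency with signal falling toward the positive control level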
# [6] = P. falciparum Dd2 growth inhibitors, dose response, SYBR Green, dry powder samples (AID 1159566); type: functional, cell-based;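 note: potency for growth inhibition with lower SYBR green DNA signal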
# [7] = P. falciparum 3D7-ScDHODH growth inhibitors, dose response, SYBR Green, dry powder samples (AID 1159570); type: functional, cell-based;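 note: parasite growth measured after 72 hours of compound exposure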
# [8] = P. falciparum ATP4 D1247Y mutant growth inhibitors, dose response, NITD609-resistant line, SYBR Green, dry powder (AID 1159571); type: functional, cell-based;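 note: parasites synchronized at ring stage by sorbitol before testing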
# [9] = P. falciparum Dd2 growth inhibitors, dose response, SYBR Green, dry powder samples, set 9 (AID 1159568); type: functional, cell-based
# [10] = P. falciparum Dd2 growth inhibitors, dose response, SYBR Green, cherry-picked samples (AID 1159567); type: functional, cell-based
# [11] = molecular target: T2, NADPH oxidase 1 (Homo sapiens, UniProt Q9Y5S8); type: functional, cell-based
# T2 sequence (Q9Y5S8 whole entry): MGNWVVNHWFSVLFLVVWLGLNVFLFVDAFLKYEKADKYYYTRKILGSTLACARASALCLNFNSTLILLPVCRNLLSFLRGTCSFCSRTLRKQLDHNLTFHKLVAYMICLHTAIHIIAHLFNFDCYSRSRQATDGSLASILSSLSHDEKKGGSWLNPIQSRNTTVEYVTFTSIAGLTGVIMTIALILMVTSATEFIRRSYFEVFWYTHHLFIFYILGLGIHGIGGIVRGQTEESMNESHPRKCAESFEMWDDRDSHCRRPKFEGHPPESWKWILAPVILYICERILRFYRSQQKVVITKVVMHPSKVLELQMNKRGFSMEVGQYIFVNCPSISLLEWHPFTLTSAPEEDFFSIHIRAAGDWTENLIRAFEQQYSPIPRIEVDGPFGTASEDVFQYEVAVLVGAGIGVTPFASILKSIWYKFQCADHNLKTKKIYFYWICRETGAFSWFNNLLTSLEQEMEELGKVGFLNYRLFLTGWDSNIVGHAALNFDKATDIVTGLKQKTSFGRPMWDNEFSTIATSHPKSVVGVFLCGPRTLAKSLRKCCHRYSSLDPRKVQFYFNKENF
# [12] = system: Vero; assay: cells; type: functional, cell-based; conditions: Chlorocebus sabaeus
# [13] = inhibitors of SNCA 5'UTR-driven translation, confirmation, luminescence, H4 neuroglioblastoma cells, dose confirmation (AID 2454); type: functional, cell-based;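 note: H4 neuroglioblastoma cells carrying an alpha-synuclein 5'UTR luciferase reporter; potency for inhibition of the luciferase signal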
# [14] = inhibitors of SNCA 5'UTR-driven reporter translation, confirmation, H4 neuroglioma cells, luminescence (AID 1988); type: functional, cell-based
# [15] = cells; type: functional, cell-based
# [16] = luciferase reporter signal reduction – luminescence, H4-C neuroglioblastoma cells, dose response (AID 2458); type: functional, cell-based;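 note: H4 neuroglioblastoma cells stably carrying a luciferase reporter gene fusion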
# [17] = Luminescence-based dose response cell-based high throughput screening assay for cytotoxic compounds using the IEC-6 intestinal epithelial cell line. [Related pubchem assays: 1858 (Summary AID.), 1825 (Counterscreen.), 1907 (Confirmation screen.)]; type: functional
# [18] = inhibitors of firefly luciferase expression or activity, dose response, H4 neuroglioma cells, luminescence (AID 1990); type: functional, cell-based
# [19] = Luminescence Cell-Based Dose Response HTS to Identify Inhibitors of 5'UTR Stem-Loop Driven Prion Protein mRNA Translation in H4 Neuroglioblastoma Cells. [Related pubchem assays: 1827 (Project Summary), 1813 (Primary HTS)]; type: functional
# [20] = molecular target: Neuropeptides B/W receptor type 1 (Homo sapiens, UniProt P48145); assay: Fluorescence-based dose response cell-based high throughput screening assay to identify antagonists of the G-protein coupled receptor 7 (GPR7). [Related pubchem assays: 1952 (Screening assay (GPR7 antagonists).), 1880 (Summary AID.)]; type: functional
# Neuropeptides B/W receptor type 1, sequence (P48145 whole entry): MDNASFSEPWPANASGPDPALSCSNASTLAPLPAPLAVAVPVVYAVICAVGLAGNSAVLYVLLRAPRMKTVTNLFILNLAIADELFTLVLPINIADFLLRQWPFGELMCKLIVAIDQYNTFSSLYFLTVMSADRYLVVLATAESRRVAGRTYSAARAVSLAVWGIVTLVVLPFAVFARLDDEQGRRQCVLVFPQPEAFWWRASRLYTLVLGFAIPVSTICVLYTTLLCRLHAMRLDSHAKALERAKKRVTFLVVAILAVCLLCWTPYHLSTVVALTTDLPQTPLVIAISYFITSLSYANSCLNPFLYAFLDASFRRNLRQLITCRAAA
# [21] = molecular target: Melanin-concentrating hormone receptor 1 (Homo sapiens, UniProt Q99705); assay: Fluorescence-based counterscreen for antagonists of the G-protein coupled receptor 7 (GPR7): cell-based high throughput dose response assay to identify antagonists of the melanin-concentrating hormone receptor 1 (MCHR1).; type: functional
# Melanin-concentrating hormone receptor 1, sequence (Q99705 whole entry): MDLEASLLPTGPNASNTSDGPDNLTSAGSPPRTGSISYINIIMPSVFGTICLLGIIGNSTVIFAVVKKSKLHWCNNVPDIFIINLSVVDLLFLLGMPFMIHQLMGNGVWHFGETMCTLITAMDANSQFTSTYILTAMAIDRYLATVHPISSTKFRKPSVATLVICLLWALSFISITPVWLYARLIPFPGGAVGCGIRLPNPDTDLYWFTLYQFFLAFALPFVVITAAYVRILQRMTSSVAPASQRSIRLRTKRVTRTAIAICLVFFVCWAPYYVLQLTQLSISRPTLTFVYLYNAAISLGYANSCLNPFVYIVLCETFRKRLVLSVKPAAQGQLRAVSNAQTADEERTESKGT
# [22] = molecular target: T2, NADPH oxidase 1; assay: Late-stage luminescence-based cell-based dose response assay to identify inhibitors of NADPH oxidase 1 (NOX1): Synthesized analogs 2.; type: functional
# [23] = Vero cell cytotoxicity, dose response, cytotoxicity control for Vif-APOBEC3G degradation inhibitor project, Vero cells (AID 1117358); type: functional; conditions: Human immunodeficiency virus 1, Vero
# [24] = molecular target: T3, Induced myeloid leukemia cell differentiation protein Mcl-1 (Homo sapiens, UniProt Q07820); type: functional
# T3 sequence (Q07820 whole entry): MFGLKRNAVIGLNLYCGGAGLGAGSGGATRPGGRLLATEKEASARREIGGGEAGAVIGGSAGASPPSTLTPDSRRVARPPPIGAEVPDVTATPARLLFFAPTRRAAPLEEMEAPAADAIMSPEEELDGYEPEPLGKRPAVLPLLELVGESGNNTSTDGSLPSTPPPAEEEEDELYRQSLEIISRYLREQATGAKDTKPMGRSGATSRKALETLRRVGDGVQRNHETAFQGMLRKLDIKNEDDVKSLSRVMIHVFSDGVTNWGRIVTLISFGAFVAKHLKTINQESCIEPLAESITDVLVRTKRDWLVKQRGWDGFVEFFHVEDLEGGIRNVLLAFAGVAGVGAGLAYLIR
# [25] = molecular target: T3, Induced myeloid leukemia cell differentiation protein Mcl-1; assay: MCL1-BIM BH3 interaction inhibitors, dose response, biochemical, fluorescence polarization, BIM-BH3 peptide, 1536-well (AID 2217)
# [26] = molecular target: Bcl-2-like protein 1 (Homo sapiens, UniProt Q07817); assay: BCL-XL inhibitors, dose response, selectivity assay for MCL1 inhibitor project, biochemical, fluorescence polarization, 1536-well (AID 2218)
# Bcl-2-like protein 1, sequence (Q07817 whole entry): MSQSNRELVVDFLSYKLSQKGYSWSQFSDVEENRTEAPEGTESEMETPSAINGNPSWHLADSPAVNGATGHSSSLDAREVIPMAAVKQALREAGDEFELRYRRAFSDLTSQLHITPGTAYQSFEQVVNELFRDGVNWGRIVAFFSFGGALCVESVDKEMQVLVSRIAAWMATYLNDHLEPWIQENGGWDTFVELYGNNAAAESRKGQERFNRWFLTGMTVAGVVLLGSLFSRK
# [27] = THP-1 cell cytotoxicity, dose response, cytotoxicity control for Vif-APOBEC3G degradation inhibitor project, THP-1 cells (AID 1117359); type: functional; conditions: Human immunodeficiency virus 1, THP-1
# [28] = system: HEK293; assay: cells; conditions: Homo sapiens
# [29] = system: HEK293; assay: cells; conditions: Homo sapiens; remark: listed apart in the source
# [30] = Artemis endonuclease inhibitor potency, dose response, biochemical, fluorescence intensity (AID 720701); type: functional;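 note: Artemis endonuclease enzyme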
# [31] = molecular target: Mitogen-activated protein kinase 10 (Homo sapiens, UniProt P53779); assay: Dose response biochemical screening assay for inhibitors of c-Jun N-Terminal Kinase 3 (JNK3). [Related pubchem assays: 746 ]
# Mitogen-activated protein kinase 10, sequence (P53779 whole entry): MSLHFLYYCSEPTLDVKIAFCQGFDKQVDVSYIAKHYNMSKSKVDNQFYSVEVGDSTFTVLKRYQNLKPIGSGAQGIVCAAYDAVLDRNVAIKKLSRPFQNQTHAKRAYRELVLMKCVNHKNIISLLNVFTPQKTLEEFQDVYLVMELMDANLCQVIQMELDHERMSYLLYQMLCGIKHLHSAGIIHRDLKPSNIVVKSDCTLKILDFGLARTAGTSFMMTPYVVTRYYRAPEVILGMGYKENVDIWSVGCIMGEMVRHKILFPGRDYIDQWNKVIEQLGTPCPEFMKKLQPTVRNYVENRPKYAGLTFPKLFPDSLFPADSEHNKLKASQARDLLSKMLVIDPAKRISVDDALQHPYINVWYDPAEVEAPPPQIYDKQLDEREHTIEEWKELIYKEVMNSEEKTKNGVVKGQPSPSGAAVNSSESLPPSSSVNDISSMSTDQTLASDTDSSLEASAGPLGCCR
smiles,measurement,setting,value
Nc1cccc(Nc2ncnc3ccccc23)c1,EC50,[1],3.58 µM (active)
Cc1c(-c2nc(-c3ccc(C(C)(C)C)cc3)no2)n(C)oc1=O,AC50,[2],> 52 µM (inactive)
same,IC50,[3],> 3 nM (active)
CCCC(=O)Nc1ccc2c(c1)OC[C@@H](C)N(Cc1cc(F)ccc1F)C[C@@H](C)[C@H](OC)CN(C)C2=O,AC50,[4],2.07 µM (active)
same,AC50,[5],> 100 µM (inactive)
same,AC50,[6],322 nM (active)
same,AC50,[7],7.15 µM (active)
same,AC50,[8],2.81 µM (active)
same,AC50,[9],978 nM (active)
same,AC50,[10],817 nM (active)
O=C(Nc1ccc(OCc2ccccc2)cc1)Nc1ccc([N+](=O)[O-])cc1,IC50,[11],> 17 µM (not active)
CN(C)c1ccc(C(=O)c2ccc(N(C)C)c3ccccc23)cc1,IC50,[12],> 25 µM (active)
same,EC50,[13],118 nM (active)
same,EC50,[14],< 100 nM (active)
same,EC50,[15],112 nM (active)
same,EC50,[16],103 nM (active)
same,IC50,[17],146 nM (active)
same,EC50,[18],< 100 nM (active)
same,EC50,[19],< 100 nM (active)
O=C(NC1CCCC1)C(c1ccccc1)N(Cc1ccco1)C(=O)Cc1cccs1 (stereo unspecified),IC50,[20],> 43.8 µM (not active)
same,IC50,[21],4.76 µM (active)
CN1c2ccccc2Sc2cc(NC(=O)c3ccc(N=[N+]=[N-])cc3)ccc21,IC50,[22],17.7 µM (active)
O=C(c1ccco1)c1cn(Cc2ccccc2)c2ccccc12,CC50,[23],> 40 µM (active)
O=c1c2c3c(sc2[nH]c(=S)n1Cc1ccco1)CCC3,IC50,[24],2.1 µM (active)
same,IC50,[25],77.8 µM (not active)
same,IC50,[26],> 109 µM (not active)
O=C(N/N=C/C(Br)=C/c1ccccc1)c1cc(-c2ccco2)[nH]n1,CC50,[27],33.1 µM (active)
same,EC50,[28],> 59.6 µM (inactive)
same,EC50,[29],> 59.6 µM (inactive)
Cc1c(-c2nc(N)nc(Nc3ccccc3)n2)oc2ccccc12,IC50,[30],7.66 µM (active)
same,IC50,[31],> 93.1 µM (not active)
